Laboratory results reported in patent US10174033B2, “N6-substituted adenosine derivatives and N6-substituted adenine derivatives and uses thereof” (INSTITUTE OF MATERIA MEDICA, CHINESE ACADEMY OF MEDICAL …, priority 2009, dated 2019).

Legend:
[1] = test system: male ICR-mice; assay: Potentiation of sodium pentobarbital sleeping time test; type: in vivo
[2] = test system: mice; assay: Sub-threshold hypnotic dose sodium pentobarbital induced sleeping test; type: in vivo; conditions: intraperitoneal, 30 min before sub-threshold sodium pentobarbital (22 mg/kg ip)
Description: N^6-substituted adenosine derivatives and/or N^6-substituted adenine derivatives potentiated sodium pentobarbital-induced sleep in mice
Name of Experiment: Sub-threshold hypnotic dose sodium pentobarbital induced sleeping test
Method of Experiment: Mice (n=7-10) were pretreated with test compound or vehicle, after 30 min, a maximal sub-threshold hypnotic dose of sodium pentobarbital (22 mg/kg) was given intraperitoneally (ip). (On some condition, the sub-threshold dosage of sodium pentobarbital should be optimized to the maximum dose, at which the rate of sleep onset of vehicle group is less than 10%). […] Following sodium pentobarbital injection, each mouse was observed 15 min for onset of sleep. The percentage of sleep onset was calculated as: (number of animals falling asleep/total number of animals)×100%.

[3] = bioassay-guided fractionation, sedative and hypnotic effects; conditions: compound isolated from Gastrodia elata and Gymnadenia conopsea, result in words
[4] = test system: PC12 cell; conditions: result in words; cited from earlier work
[5] = molecular target: adenosine A2A receptor (Homo sapiens, UniProt P29274); conditions: result in words; cited from earlier work
adenosine A2A receptor, sequence (P29274 whole entry): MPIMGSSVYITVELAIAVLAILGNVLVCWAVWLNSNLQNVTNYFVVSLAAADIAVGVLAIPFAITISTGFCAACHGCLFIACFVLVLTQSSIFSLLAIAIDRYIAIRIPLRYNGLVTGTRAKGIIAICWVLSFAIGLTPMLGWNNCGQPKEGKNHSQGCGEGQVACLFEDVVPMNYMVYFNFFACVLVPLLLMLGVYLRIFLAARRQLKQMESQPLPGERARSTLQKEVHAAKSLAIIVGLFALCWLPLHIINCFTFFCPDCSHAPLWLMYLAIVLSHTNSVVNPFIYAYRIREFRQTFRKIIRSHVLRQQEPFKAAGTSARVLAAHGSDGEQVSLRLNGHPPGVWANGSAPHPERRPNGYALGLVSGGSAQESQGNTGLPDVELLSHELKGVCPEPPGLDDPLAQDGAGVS

[6] = intraperitoneal, 5 mg/kg, 38 mg/kg sodium pentobarbital 30 min later
[7] = intraperitoneal, 1 mg/kg, 38 mg/kg sodium pentobarbital 30 min later
[8] = oral, 5 mg/kg, 38 mg/kg sodium pentobarbital 60 min later

| SMILES | Sleep prolonging rate (%) [1, 6] [%] | Sleep rate (%) ([2]; 5 mg/kg) | Sleep rate (%) ([2]; 1 mg/kg) | also measured |
| --- | --- | --- | --- | --- |
| O=C(O)[C@@H](CO)Nc1ncnc2c1ncn2[C@@H]1O[C@H](CO)C(O)C1O (stereo partly drawn) [Example 124, N-(6-adenosine)-(L)-serine] | – | – | – | Sleep prolonging rate (%) ([1]; intraperitoneal, 5 mg/kg, 38 mg/kg sodium pentobarbital 30 min later, listed as N-(6-adenosine)-(L)-serine): 15%; Sleep rate (%) ([2]; 5 mg/kg, listed as N-(6-adenosine)-(L)-serine): 29% |
| OC[C@H]1O[C@@H](n2cnc3c(N4CCN(c5ccccc5)CC4)ncnc32)C(O)C1O (stereo partly drawn) [Example 16] | 34 | 50 | – | – |
| Nc1cccc(CNc2ncnc3c2ncn3[C@@H]2O[C@H](CO)[C@@H](O)[C@H]2O)c1 [Example 7, N^6-(m-aminobenzyl)-adenosine] | – | – | 100 | Sleep prolonging rate (%) [1, 7]: 101%; Sleep prolonging rate (%) [1, 8]: 50% |
| OC[C@H]1O[C@@H](n2cnc3c(NCCc4c[nH]cn4)ncnc32)[C@H](O)[C@@H]1O [Example 43, N^6-[(1H-imidazole-4-yl)-ethyl]-adenosine] | – | – | 88 | Sleep prolonging rate (%) [1, 7]: 43% |
| OC[C@H]1O[C@@H](n2cnc3c(NCc4ccc(F)cc4)ncnc32)[C@H](O)[C@@H]1O [Example 11, N^6-(p-fluorobenzyl)-adenosine] | 73 | 71 | – | – |
| OC[C@H]1O[C@@H](n2cnc3c(NCc4ccc(O)cc4)ncnc32)[C@H](O)[C@@H]1O [Example 2, N^6-(p-hydroxybenzyl)-adenosine] | – | – | 63 | sedative and hypnotic effects [3]: significant sedative and hypnotic effects; preventing PC12 cell apoptosis [4]: effective in preventing PC12 cell apoptosis; Sleep prolonging rate (%) ([1]; oral, 1 mg/kg, 38 mg/kg sodium pentobarbital 60 min later): 90%; binding to adenosine A2A receptor [5]: binding to adenosine A2A receptor |
| OC[C@H]1O[C@@H](n2cnc3c(NCc4ccccc4O)ncnc32)[C@H](O)[C@@H]1O [Example 3, N^6-(o-hydroxybenzyl)-adenosine] | – | – | 88 | Sleep prolonging rate (%) [1, 8]: 92% |
| OC[C@H]1O[C@@H](n2cnc3c(NCc4ccc(C(F)(F)F)cc4)ncnc32)[C@H](O)[C@@H]1O [Example 13, N^6-(p-trifluoromethylbenzyl)-adenosine] | 23 | 57 | – | – |
| OC[C@H]1O[C@@H](n2cnc3c(NCc4ccc5c(c4)OCO5)ncnc32)[C@H](O)[C@@H]1O [Example 31, N^6-(3,4-methylenedioxybenzyl)-adenosine] | 175 | 100 | – | – |
| O=C(O)[C@@H](Cc1c[nH]c2ccccc12)Nc1ncnc2c1ncn2[C@@H]1O[C@H](CO)C(O)C1O (stereo partly drawn) [Example 111, N-(6-adenosine)-(L)-tryptophan] | 69 | 14 | – | – |
| O=C(O)C(Cc1c[nH]c2ccc(O)cc12)Nc1ncnc2c1ncn2[C@@H]1O[C@H](CO)C(O)C1O (stereo partly drawn) [Example 115, N-(6-adenosine)-5-hydroxy tryptophan] | 60 | 17 | – | – |
| OC[C@H]1O[C@@H](n2cnc3c(NCc4ccc(OC(F)(F)F)cc4)ncnc32)[C@H](O)[C@@H]1O [Example 12, N^6-(p-trifluoromethoxybenzyl)-adenosine] | 44 | 43 | – | – |
| COc1cc(CNc2ncnc3c2ncn3[C@@H]2O[C@H](CO)[C@@H](O)[C@H]2O)ccc1O [Example 23, N^6-(3-methoxy-4-hydroxybenzyl)-adenosine] | – | – | 100 | Sleep prolonging rate (%) ([1]; oral, 4 mg/kg, 38 mg/kg sodium pentobarbital 60 min later): 87% |
